Reference: patent publication US20110015066A1, “Herbicidal Composition” (priority 2008, published 2011)

What was measured:
[1] = Accelerated Heat Stability of compositions: active ingredient content before and after 14 days; assay type: physicochemical; details: 1 %
Procedure: The numbers of formulations were made up as described in above examples. The concentration of Clodinafop propargyl (15%)+Metsulfuron methyl (1%) 16% WP was tested for its active stability at elevated temperature (54±2° C.) and at 3 different pH ranges as shown below.
The storage stability of the compositions according the present invention was compared with the storage stability of compositions individually and in combination as Tank, mix and plant mixes. The term Tank mix means that clodinafop-propargyl and metsulfuron methyl are mixed in the tank at the time of spraying. The term plant mix means that ready mix of the clodinafop-propargyl and metsulfuron methyl are diluted in the tank before spraying.

[2] = test system: broad leaf weeds; test: Field trial in wheat: weed population and biomass of broad leaf weeds; assay type: in vivo
Procedure: Parts and percentages are by weight unless otherwise indicated. Field tests were made at various trial sites. The performance of the new combination herbicide according to the present invention (Clodinafop 15% and metsulfuron methyl 1%), Metsulfuron methyl 20% WP and Clodinafop-propargyl 15% WP was evaluated against weed flora in wheat crop during rabi season. Recommended package of practices for wheat crop was followed to raise the crop. The herbicide treatments were applied as post emergence spray at 35 days after sowing (DAS). The data on weed population (number/m^2) and dry matter (gm/m^2) was taken after 60 days after sowing and at the harvest. Similar yields (quintal/hectare i.e. q/ha.) and yield attributed parameters like plant height, number of effective tiller, number of grain per ear-head, test weight were recorded at harvest. A statistical analysis of the entire data was carried out.
The major weed flora recorded in the experimental field were grasses like Phalaris minor and Avena fatua and broad leaf weeds namely Chenopodium album, Rumex sp., Convolvulus arvensis, Melilotus alba, Medicago denticulata, Fumaria sp. Vicia sativa and Anagalis arvensis.

[3] = test system: Susceptible plants; details: after post-emergence treatment; cited from earlier work

## COC(=O)c1ccccc1S(=O)(=O)NC(=O)Nc1nc(C)nc(OC)n1 [metsulfuron methyl, methyl 2-(4-methoxy-6-methyl-1,3,5-triazin-2-ylcarbamoylsulfamoyl)benzoate]
[1]; pH 4.5
  Metsulfuron methyl % degradation: 24.67%
[1]; pH 6.8
  Metsulfuron methyl % degradation: 12.64%
[1]; pH 8.5
  Metsulfuron methyl % degradation: 4.82%
[2]
  control of broad leaf weeds (in words): superior control of broad leaf weeds only
[3]
  time in which susceptible plants are killed: 7 to 21 days
